# Measurements: patent US20220151935A1, “USE OF AMINO ACID BASED NUTRIENTS AND PHARMACEUTICAL COMPOSITION CONTAINING THE SAME” (priority 2018, published 2022)
# Columns and labels:
# [1] = pH of the drug composition; assay type: physicochemical; conditions: aqueous solution
# breast cancer 4T1 cells = experiment: Tumor weight and tumor inhibition in BALB/c mice bearing breast cancer 4T1 cells; conditions: for Tumor inhibition rate / Tumor weight (g) (x ± s) / Tumor weight (x ± s): intratumoral 150 μl/mouse every 3 days x3, 5th day; for Intratumoral injection Tumor inhibition rate / Intratumoral injection Tumor weight: Table 10, avg tumor volume 336 mm^3, 150 μl/mouse every 3 days x3, 5th day after last dose;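 for all read-outs here: subcutaneous grafts in the right axilla, tumors excised and weighed after euthanasia, inhibition rate derived from group mean tumor weight versus the negative control group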
# Procedure: In the following examples, unless otherwise specified, animal tests of subcutaneous transplantation tumors were performed in accordance with test guidelines issued by a drug administration authority. […] The subcutaneous transplantation was carried out according to a conventional method for subcutaneous inoculation of tumor cells. […] Items to be observed, measured and analyzed in the experiments included general status, body weight, food intake, tumor volume, tumor weight, thymus weight, spleen weight, and the like.
# The tumor growth inhibition rate (abbreviated as tumor inhibition rate in the present invention) is calculated through the following equation:
# wherein TW is an average tumor weight of a study group; CW is an average tumor weight of a negative control group.
# The effects of the co-use of drugs (including efficacy and safety) can theoretically be based on the judgment of q:
# q=actual combined effect/theoretical expected effect of simple addition.
# When q=1, the actual combined effect meets the theoretical expectation, showing an additive effect; when q<1, the actual combined effect is weaker than the theoretical expectation, showing an antagonistic effect; and when q>1, the actual combined effect exceeds the theoretical expectation, showing a synergic effect. Unless otherwise specified, single-use efficacy of A or B (denoted as EA and EB respectively) and the actual combined efficacy of A/B (denoted as EA+B) are both tumor inhibition rates.
# In one experiment, the test animal was a BALB/c mouse, the modeling cells were breast cancer 4T1 cells, and the transplantation tumor was modeled at 1×10^6 cells/mouse under the skin of the animal's right axilla. […] The experimental groups were divided into 1 negative control group (group 0) and 13 study groups (groups 1-13). They were all injected intratumorally. […] Each group was administered once every 3 days for a total of 3 times, each time at an injection dose of 150 μl//mouse. During the administration, general state of the animals and the degree of necrosis of normal tissues around the tumor after the administration were observed. On the 5th day after the administration was ended, the animals were euthanized, and the tumor weight was measured after anatomy to the animals. The tumor inhibition rate was calculated from the negative control group of each administration mode.
# In another experiment, the test animal was a BALB/c mouse, the modeling cells were breast cancer 4T1 cells, and the transplantation tumor was modeled at 1×10^6 cells/mouse under the skin of the animal's right axilla. […] Each group was administered by intratumoral injection once every 3 days for a total of 3 times, each time at an injection dose of 150 μl/mouse. On the 5th day after the administration was ended, the animals were euthanized, and the tumor weight was measured after anatomy to the animals. The tumor inhibition rate was calculated from the negative control group.
# In another experiment, the test animal was BALB/c mice, the modeling cells were breast cancer 4T1 cells, and the transplantation tumor was modeled at 1×10^6 cells/mouse under the skin of the animal's right axilla. […] Each group was administered by intratumoral injection once every 3 days for a total of 3 times, each time at an injection dose of 150 μl/mouse. On the 5th day after the administration was ended, the animals were euthanized, and the tumor weight was measured after anatomy to the animals. The tumor inhibition rate was calculated from the negative control group.
# In another experiment, the test animal was a BALB/c mouse, the modeling cells were breast cancer 4T1 cells, and the transplantation tumor under the skin of the animal's right axilla was modeled at 1×10^6 cells/mouse.
# [2] = tested on: human liver cancer cells (HepG2); experiment: Tumor weight and tumor inhibition in nude mice bearing HepG2; assay type: in vivo; conditions: Table 11; avg tumor volume 164 mm^3; intratumoral every 3 days x3, ≤150 μl; fifth day after last dose
# Procedure: One of the core characteristics of tumors is heterogeneity. […] The corresponding negative control was normal saline.
# They were injected intraperitoneally and intratumorally.
# The negative control group was given normal saline. The compositions of the study drug are as shown in the table below: 4 types and concentrations of amino acid based nutrient single drugs (X % amino acid based nutrients), 18 types and concentrations of ineffective absorption drugs (Y % ineffective absorption drugs), 24 compositions comprising various types and concentrations of amino acid based nutrients and ineffectively absorption drugs (X % amino acid based nutrients/Y % ineffectively absorption drugs).
# The negative control was normal saline. The compositions of 16 study drugs, as shown in the table below, comprise: a 5-fluorouracil single drug of 4 varying concentrations (X % 5-fluorouracil), and an amino acid based nutrient with 5 varying concentrations (Y % amino acid based nutrient), 7 compositions consisting of 5-fluorouracil of varying concentrations and an amino acid based nutrient of varying concentrations (X % 5-fluorouracil/Y % amino acid based nutrient). […] The dose at each time was: 5-fluorouracil 50 mg/kg, glutathione ≤1 g/kg, and an injection volume was ≤150 μl/mouse.
# The negative control was normal saline, the positive control was 1% 5-fluorouracil, and the study drug was 1% methylene blue/10% amino acid based nutrient composition (the type of the amino acid based nutrient is variable). The amino acid based nutrients in the compositions used in study groups 1-13 were: arginine, glycine, cysteine hydrochloride, valine, threonine, proline, histidine hydrochloride, phenylalanine, lysine, leucine, alanine, glutathione, serine, and the study drug used in the study group 14 was 1% methylene blue/5% arginine/5% glycine.
# HepG2 = experiment: Intratumoral tissue destruction, histological observation of HepG2 tumors; conditions: Table 7; intratumoral injection, once, ≤130 μl/mouse; next day; scale 0 = blank control, 5 = 5% acetic acid
# Procedure: The negative control group was given normal saline, and the compositions and injection methods of the 5 study drugs are shown in the table below. […] Each group was administered once, with an injection dose of ≤130 μl/mouse. On the next day after the administration was ended, the animals were euthanized, and the tumor was dissected for histological observation.
# The negative control groups were given normal saline, and the compositions and injection methods of the 5 study drugs are shown in the table below. […] Each group was administered once, with an injection dose of ≤130 μl/mouse. On the next day after the administration was ended, the animals were euthanized, and the tumor was dissected for histological observation.
# [3] = Table 13, avg tumor volume 307 mm^3
# [4] = Table 15, avg tumor volume 316 mm^3
# [5] = Table 12, avg tumor volume 317 mm^3
# [6] = Table 14, avg tumor volume 325 mm^3
Structure (SMILES),Drug pH ([1]; Table 13),Tumor inhibition rate (breast cancer 4T1 cells; [3]) [%],Tumor weight (g) (x ± s) (breast cancer 4T1 cells; [3]),also measured
"O=C([O-])O.[Na+] [2% sodium bicarbonate, sodium bicarbonate]",6.9,7,2.10 ± 0.25,
"O=C([O-])[O-].[Na+].[Na+] [14% sodium carbonate, sodium carbonate]",10.8,35,1.47 ± 0.24,
"N=C(N)NCCC[C@H](N)C(=O)O [15% arginine, L-arginine]",11.0,23,1.74 ± 0.28,Intratumoral injection Tumor inhibition rate (breast cancer 4T1 cells): 28%; Intratumoral injection Tumor weight (breast cancer 4T1 cells): 0.92 ± 0.26 g
"NCC(=O)O [15% glycine, Glycine]",,,,Drug pH ([1]; Table 15): 6.8; Tumor inhibition rate (breast cancer 4T1 cells; [4]): 17%; Tumor weight (x ± s) (breast cancer 4T1 cells; [4]): 1.81 ± 0.26 g
"O=C([O-])[O-].[Na+].[Na+] [2.8% sodium carbonate, sodium carbonate]",10.9,7,2.10 ± 0.27,
"[Na+].[OH-] [1% NaOH, sodium hydroxide]",,,,Drug pH ([1]; Table 14): 11.8; Intratumoral injection Tumor inhibition rate (breast cancer 4T1 cells): 41%; Intratumoral injection Tumor weight (breast cancer 4T1 cells): 0.76 ± 0.24 g; Tumor inhibition rate (breast cancer 4T1 cells; [5]): 41%; Tumor weight (x ± s) (breast cancer 4T1 cells; [5]): 1.39 g; Tumor inhibition rate (breast cancer 4T1 cells; [6]): 42%; Tumor weight (x ± s) (breast cancer 4T1 cells; [6]): 1.41 ± 0.23 g
"O=C([O-])[O-].[Na+].[Na+] [7% sodium carbonate, sodium carbonate]",10.8,20,1.81 ± 0.21,
"O=C([O-])O.[Na+] [10% sodium bicarbonate, sodium bicarbonate]",6.8,30,1.58 ± 0.22,
"CC(=O)O [5% acetic acid, acetic acid, reference compound]",,,,Tumor inhibition rate [2]: (71%); Intratumoral tissue destruction (HepG2): 5
